From patent publication US7803792B2, “Quaternary ammonium compounds” (Asahi Kasei Pharma Corporation, priority 2002, dated 2010)

What follows are compounds tested against T1, human IBAT (Homo sapiens, UniProt Q12908) (assay: In vitro assay of temporarily expressed human IBAT transporter using Cos 7 cells (Test Example 8)). Details: Cos 7 cells temporarily expressing human IBAT; [3H] taurocholate 8 μM, 37° C., 60 minutes.
T1 construct: expressed in transfected cells; host or cells: Cos 7
T1 sequence (Q12908 1-348): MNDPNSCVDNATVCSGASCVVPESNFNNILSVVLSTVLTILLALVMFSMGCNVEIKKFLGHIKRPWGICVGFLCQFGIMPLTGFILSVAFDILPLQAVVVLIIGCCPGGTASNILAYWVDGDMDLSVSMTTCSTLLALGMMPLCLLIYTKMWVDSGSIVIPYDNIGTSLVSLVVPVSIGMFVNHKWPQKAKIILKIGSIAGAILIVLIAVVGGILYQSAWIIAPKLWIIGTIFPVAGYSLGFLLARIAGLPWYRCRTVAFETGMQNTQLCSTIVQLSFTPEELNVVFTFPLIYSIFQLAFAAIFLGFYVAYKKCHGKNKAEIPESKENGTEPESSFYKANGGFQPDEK
Assay type: cell-based
Method: In Vitro Assay of Compounds Which Inhibit Temporarily Expressed Human IBAT Transporter or Rat IBAT Transporter Using Cos 7 Cells
In this test example, the in vitro assay of the compounds which inhibit temporarily expressed human IBAT transporter or rat IBAT transporter using Cos cells was carried out according to the method described in Am. J. Physiol., 274, G157-169.
That is, […] Cos 7 were inoculated on a 24-well cell plate. One day later, 0.3 μg per well of cDNA of a human IBAT or a rat IBAT was transfected by using FuGENE6 (manufactured by ROCHE PHARMACEUTICAL CO., LTD.). For the assay, the cells cultured for one day after the transfection were used and the following procedure was followed. The cells were washed once with an assay buffer, Hank's buffer solution containing 25 mM glucose and with 10 mM HEPES (pH 7.4), and then the assay buffer was replaced by an assay buffer to which the test compound was added. After adding [^3H] taurocholate to a final concentration of 8 μM, the cells were incubated at 37° C. for 60 minutes. [^3H] taurocholate was allowed to be incorporated in Cos 7 cells through human IBAT or rat IBAT. The reaction was stopped by washing twice with a buffer prepared by adding 1 mM taurocholate to the assay buffer and lyzing the cells with 0.2M NaOH. Measurement of radioactivity was carried out by introducing the cell lyzate in 4 ml of liquid scintillation cocktail, stirring the mixture well, and then measuring the radioactivity by a scintillation counter.

| SMILES | IC50 [µM] |
| --- | --- |
| CCCCC1(CCCC)CS(=O)(=O)c2ccc(N(C)C)cc2C(c2cccc(NC(=S)NCCCCC[N+]34CCC(CC3)CC4)c2)N1 (stereo not drawn) [Example 1433] | 0.103 |
| CCCCC1(CCCC)CS(=O)(=O)c2ccc(N(C)C)cc2C(c2cccc(NC(=S)NCCCCCC[N+](C)(C)Cc3ccccc3)c2)N1 (stereo not drawn) [Example 1555] | 0.153 |
| CCCCC1(CCCC)CS(=O)(=O)c2ccc(N(C)C)cc2C(c2cccc(NC(=S)NCCCCCC[N+]34CCC(CC3)CC4)c2)N1 (stereo not drawn) [Example 1810] | 0.167 |
| CCCCCC[N+](C)(C)Cc1ccc(NC(=S)Nc2cccc(C3NC(CCCC)(CCCC)CS(=O)(=O)c4ccc(N(C)C)cc43)c2)cc1 (stereo not drawn) [Example 3410] | 0.068 |
| CCCCCCCC[N+](C)(C)Cc1ccc(NC(=S)Nc2cccc(C3NC(CCCC)(CCCC)CS(=O)(=O)c4ccc(N(C)C)cc43)c2)cc1 (stereo not drawn) [Example 3412] | 0.075 |
| CCCCCCCCC[N+](C)(C)Cc1ccc(NC(=S)Nc2cccc(C3NC(CCCC)(CCCC)CS(=O)(=O)c4ccc(N(C)C)cc43)c2)cc1 (stereo not drawn) [Example 3413] | 0.073 |
| CCCCCCCCCC[N+](C)(C)Cc1ccc(NC(=S)Nc2cccc(C3NC(CCCC)(CCCC)CS(=O)(=O)c4ccc(N(C)C)cc43)c2)cc1 (stereo not drawn) [Example 3414] | 0.088 |
| CCCCC1(CCCC)CS(=O)(=O)c2ccc(N(C)C)cc2C(c2cccc(NC(=S)Nc3ccc(C[N+](C)(CCC)CCC)cc3)c2)N1 (stereo not drawn) [Example 3426] | 0.058 |
| C=CC[N+](C)(C)Cc1ccc(NC(=S)Nc2cccc(C3NC(CCCC)(CCCC)CS(=O)(=O)c4ccc(N(C)C)cc43)c2)cc1 (stereo not drawn) [Example 3429] | 0.055 |
| C#CC[N+](C)(C)Cc1ccc(NC(=S)Nc2cccc(C3NC(CCCC)(CCCC)CS(=O)(=O)c4ccc(N(C)C)cc43)c2)cc1 (stereo not drawn) [Example 3433] | 0.055 |
| CCC#CC[N+](C)(C)Cc1ccc(NC(=S)Nc2cccc(C3NC(CCCC)(CCCC)CS(=O)(=O)c4ccc(N(C)C)cc43)c2)cc1 (stereo not drawn) [Example 3434] | 0.071 |
| CCCCC1(CCCC)CS(=O)(=O)c2ccc(N(C)C)cc2C(c2cccc(NC(=S)Nc3ccc(C[N+](C)(C)C(C)c4ccccc4)cc3)c2)N1 (stereo not drawn) [Example 3441] | 0.085 |
| CCCCC1(CCCC)CS(=O)(=O)c2ccc(N(C)C)cc2C(c2cccc(NC(=S)Nc3ccc(C[N+](C)(C)Cc4cccs4)cc3)c2)N1 (stereo not drawn) [Example 3449] | 0.055 |
| CCCCC1(CCCC)CS(=O)(=O)c2ccc(N(C)C)cc2C(c2cccc(NC(=S)Nc3ccc(C[N+](C)(C)CC(C)O)cc3)c2)N1 (stereo not drawn) [Example 3454] | 0.068 |
| CCCCC1(CCCC)CS(=O)(=O)c2ccc(N(C)C)cc2C(c2cccc(NC(=S)Nc3ccc(C[N+](C)(C)CCOC(=O)c4ccccc4)cc3)c2)N1 (stereo not drawn) [Example 3558] | 0.07 |
| CCCCC1(CCCC)CS(=O)(=O)c2ccc(N(C)C)cc2C(c2cccc(NC(=S)Nc3ccc(C[N+]4(CC)CCCC4)cc3)c2)N1 (stereo not drawn) [Example 3568] | 0.094 |
| CCCCC1(CCCC)CS(=O)(=O)c2ccc(N(C)C)cc2C(c2cccc(NC(=S)Nc3ccc(C[N+]4(C)CCCCC4)cc3)c2)N1 (stereo not drawn) [Example 3587] | 0.07 |
| CCCCC1(CCCC)CS(=O)(=O)c2ccc(N(C)C)cc2C(c2cccc(NC(=S)Nc3ccc(C[N+]4(Cc5ccccc5)CCCCC4)cc3)c2)N1 (stereo not drawn) [Example 3593] | 0.07 |
| CCCCC1(CCCC)CS(=O)(=O)c2ccc(N(C)C)cc2C(c2cccc(NC(=S)Nc3ccc(C[N+]4(C)CCC(O)CC4)cc3)c2)N1 (stereo not drawn) [Example 3599] | 0.054 |
| CCCCC1(CCCC)CS(=O)(=O)c2ccc(N(C)C)cc2C(c2cccc(NC(=S)Nc3ccc(C[N+]4(Cc5ccccc5)CCCC(O)C4)cc3)c2)N1 (stereo not drawn) [Example 3604] | 0.045 |
| CCCCC1(CCCC)CS(=O)(=O)c2ccc(N(C)C)cc2C(c2cccc(NC(=S)Nc3ccc(C[N+]45CCC(CC4)C(O)C5)cc3)c2)N1 (stereo not drawn) [Example 3697] | 0.069 |
| CCCCC1(CCCC)CS(=O)(=O)c2ccc(N(C)C)cc2C(c2cccc(NC(=S)Nc3ccc(C[N+]45CCC(CC4)C(=O)C5)cc3)c2)N1 (stereo not drawn) [Example 3698] | 0.072 |
| CCCCC1(CCCC)CS(=O)(=O)c2ccc(N(C)C)cc2C(c2cccc(NC(=S)Nc3ccc(C[n+]4ccccc4)cc3)c2)N1 (stereo not drawn) [Example 3708] | 0.07 |
| CCCCC1(CCCC)CS(=O)(=O)c2ccc(N(C)C)cc2C(c2cccc(NC(=S)Nc3ccc(C[n+]4ccc(CCC)cc4)cc3)c2)N1 (stereo not drawn) [Example 3711] | 0.063 |

| SMILES | IC50 [µM] |
| --- | --- |
| CCCCC(CCCC)c1cc[n+](Cc2ccc(NC(=S)Nc3cccc(C4NC(CCCC)(CCCC)CS(=O)(=O)c5ccc(N(C)C)cc54)c3)cc2)cc1 (stereo not drawn) [Example 3716] | 0.089 |
| CCCCC1(CCCC)CS(=O)(=O)c2ccc(N(C)C)cc2C(c2cccc(NC(=S)Nc3ccc(C[n+]4ccc(-c5ccccc5)cc4)cc3)c2)N1 (stereo not drawn) [Example 3717] | 0.03 |
| CCCCC1(CCCC)CS(=O)(=O)c2ccc(N(C)C)cc2C(c2cccc(NC(=S)Nc3ccc(C[n+]4cccc(CC)c4)cc3)c2)N1 (stereo not drawn) [Example 3722] | 0.039 |
| CCCCC1(CCCC)CS(=O)(=O)c2ccc(N(C)C)cc2C(c2cccc(NC(=S)Nc3ccc(C[n+]4cccc(-c5ccccc5)c4)cc3)c2)N1 (stereo not drawn) [Example 3724] | 0.069 |
| CCCCC1(CCCC)CS(=O)(=O)c2ccc(N(C)C)cc2C(c2cccc(NC(=S)Nc3ccc(C[n+]4cccc(Cc5ccccc5)c4)cc3)c2)N1 (stereo not drawn) [Example 3725] | 0.052 |
| CCCCC1(CCCC)CS(=O)(=O)c2ccc(N(C)C)cc2C(c2cccc(NC(=S)Nc3ccc(C[n+]4cccc(-c5cccs5)c4)cc3)c2)N1 (stereo not drawn) [Example 3726] | 0.073 |
| CCCCC1(CCCC)CS(=O)(=O)c2ccc(N(C)C)cc2C(c2cccc(NC(=S)Nc3ccc(C[n+]4ccc(C)c(C)c4)cc3)c2)N1 (stereo not drawn) [Example 3727] | 0.066 |
| CCCCC1(CCCC)CS(=O)(=O)c2ccc(N(C)C)cc2C(c2cccc(NC(=S)Nc3ccc(C[n+]4cc(C)cc(C)c4)cc3)c2)N1 (stereo not drawn) [Example 3729] | 0.088 |
| CCCCC1(CCCC)CS(=O)(=O)c2ccc(N(C)C)cc2C(c2cccc(NC(=S)Nc3ccc(C[n+]4cc(C)cc(-c5ccccc5)c4)cc3)c2)N1 (stereo not drawn) [Example 3730] | 0.084 |
| CCCCC1(CCCC)CS(=O)(=O)c2ccc(N(C)C)cc2C(c2cccc(NC(=S)Nc3ccc(C[n+]4ccc(CCCO)cc4)cc3)c2)N1 (stereo not drawn) [Example 3733] | 0.057 |
| CCCCC1(CCCC)CS(=O)(=O)c2ccc(N(C)C)cc2C(c2cccc(NC(=S)Nc3ccc(C[n+]4ccc(C(C)=O)cc4)cc3)c2)N1 (stereo not drawn) [Example 3736] | 0.05 |
| CCCCC1(CCCC)CS(=O)(=O)c2ccc(N(C)C)cc2C(c2cccc(NC(=S)Nc3ccc(C[n+]4cccc(C(=O)c5ccccc5)c4)cc3)c2)N1 (stereo not drawn) [Example 3748] | 0.081 |
| CCCCCCOC(=O)c1ccc[n+](Cc2ccc(NC(=S)Nc3cccc(C4NC(CCCC)(CCCC)CS(=O)(=O)c5ccc(N(C)C)cc54)c3)cc2)c1 (stereo not drawn) [Example 3750] | 0.075 |
| CCCCC1(CCCC)CS(=O)(=O)c2ccc(N(C)C)cc2C(c2cccc(NC(=S)Nc3ccc(C[n+]4ccc(C(N)=O)cc4)cc3)c2)N1 (stereo not drawn) [Example 3754] | 0.092 |
| CCCCC1(CCCC)CS(=O)(=O)c2ccc(N(C)C)cc2C(c2cccc(NC(=S)Nc3ccc(C[n+]4ccc(CCc5ccncc5)cc4)cc3)c2)N1 (stereo not drawn) [Example 3764] | 0.08 |
| CCCCC1(CCCC)CS(=O)(=O)c2ccc(N(C)C)cc2C(c2cccc(NC(=S)Nc3ccc(C[n+]4cccc5ccccc54)cc3)c2)N1 (stereo not drawn) [Example 3768] | 0.072 |
| CCCCC1(CCCC)CS(=O)(=O)c2ccc(N(C)C)cc2C(c2cccc(NC(=S)Nc3ccc(C[n+]4cccc5cc(C)ccc54)cc3)c2)N1 (stereo not drawn) [Example 3770] | 0.057 |
| CCCCC1(CCCC)CS(=O)(=O)c2ccc(N(C)C)cc2C(c2cccc(NC(=S)Nc3ccc(C[n+]4cccc5cc(C(C)C)ccc54)cc3)c2)N1 (stereo not drawn) [Example 3772] | 0.089 |
| CCCCC1(CCCC)CS(=O)(=O)c2ccc(N(C)C)cc2C(c2cccc(NC(=S)CCCCC[N+]34CCC(CC3)C(O)C4)c2)N1 (stereo not drawn) [Example 3854] | 0.028 |
| CCCCC1(CCCC)CS(=O)(=O)c2ccc(N(C)C)cc2C(c2cccc(NC(=S)Nc3ccc(C[n+]4cccc5c4CCCC5)cc3)c2)N1 (stereo not drawn) [Example 4221] | 0.043 |
| CCCCC1(CCCC)CS(=O)(=O)c2ccc(N(C)C)cc2C(c2cccc(NC(=S)Nc3ccc(C[n+]4ccc5c(c4)CCCC5)cc3)c2)N1 (stereo not drawn) [Example 4223] | 0.025 |
| CCCCC1(CCCC)CS(=O)(=O)c2ccc(N(C)C)cc2C(c2cccc(NC(=S)Nc3cccc(C[N+](C)(C)CCCC)c3)c2)N1 (stereo not drawn) [Example 4226] | 0.099 |
| CCCCC1(CCCC)CS(=O)(=O)c2ccc(N(C)C)cc2C(c2cccc(NC(=S)Nc3cccc(C[N+](CC)(CC)CC)c3)c2)N1 (stereo not drawn) [Example 4232] | 0.099 |
| CCCCC1(CCCC)CS(=O)(=O)c2ccc(N(C)C)cc2C(c2cccc(NC(=S)Nc3cccc(C[N+](CC)(CC)CCCC)c3)c2)N1 (stereo not drawn) [Example 4233] | 0.046 |
